Literature values in patent US20210251886A1, “ORAL MUCOSAL DELIVERY SYSTEMS COMPRISING MONOPHASIC CONCENTRATE OF TERIPARATIDE” (ZIM LABORATORIES LIMITED, priority 2018, published 2021).
Where two headings read alike, the source gives them in different places.

Conditions: dogs

Structure (SMILES): CC[C@H](C)[C@H](NC(=O)[C@H](CCC(=O)O)NC(=O)[C@H](CO)NC(=O)[C@@H](NC(=O)[C@@H](N)CO)C(C)C)C(=O)N[C@@H](CCC(N)=O)C(=O)N[C@@H](CC(C)C)C(=O)N[C@@H](CCSC)C(=O)N[C@@H](Cc1cnc[nH]1)C(=O)N[C@@H](CC(N)=O)C(=O)N[C@@H](CC(C)C)C(=O)NCC(=O)N[C@@H](CCCCN)C(=O)N[C@@H](Cc1cnc[nH]1)C(=O)N[C@@H](CC(C)C)C(=O)N[C@@H](CC(N)=O)C(=O)N[C@@H](CO)C(=O)N[C@@H](CCSC)C(=O)N[C@@H](CCC(=O)O)C(=O)N[C@@H](CCCN=C(N)N)C(=O)N[C@H](C(=O)N[C@@H](CCC(=O)O)C(=O)N[C@@H](Cc1c[nH]c2ccccc12)C(=O)N[C@@H](CC(C)C)C(=O)N[C@@H](CCCN=C(N)N)C(=O)N[C@@H](CCCCN)C(=O)N[C@@H](CCCCN)C(=O)N[C@@H](CC(C)C)C(=O)N[C@@H](CCC(N)=O)C(=O)N[C@@H](CC(=O)O)C(=O)N[C@H](C(=O)N[C@@H](Cc1cnc[nH]1)C(=O)N[C@@H](CC(N)=O)C(=O)N[C@@H](Cc1ccccc1)C(=O)O)C(C)C)C(C)C [PTH (1-34)]
- bioavailability (buccal route): about 3.3%
- bioavailability (oral route): 4.8%
